Measurements reported in ChEMBL document CHEMBL3045696, “CsFCelite catalyzed facile N-alkylation of 2(3H)-benzoxazolones and antimicrobial properties of 2-substituted benzoxazole and 3-substituted-2(3H)-benzoxazolone derivatives” (2011).
Converted amounts (≈) assume the structure as drawn. The source made the active and inactive calls. The rule behind the calls is not given here.

Key:
Format in all cases: functional
Aspergillus niger [1] = assay: Antimicrobial activity against Aspergillus niger MTCC 282 at 150 ug after 48 hr by agar well diffusion method
Rhizopus arrhizus [2] = assay: Antimicrobial activity against Rhizopus oryzae MTCC 262 at 150 ug after 48 hr by agar well diffusion method; details: for zone of inhibition at 150 µg/disc: MTCC 262, 48 h, read-out: IZ
Aspergillus niger [3] = assay: Antimicrobial activity against Aspergillus niger MTCC 282 at 100 ug after 48 hr by agar well diffusion method
Rhizopus arrhizus [4] = assay: Antimicrobial activity against Rhizopus oryzae MTCC 262 at 100 ug after 48 hr by agar well diffusion method; details: for zone of inhibition at 100 µg/disc: MTCC 262, 48 h, read-out: IZ
Saccharomyces cerevisiae [5] = assay: Antimicrobial activity against Saccharomyces cerevisiae MTCC 36 at 150 ug after 48 hr by agar well diffusion method
Saccharomyces cerevisiae [6] = assay: Antimicrobial activity against Saccharomyces cerevisiae MTCC 36 at 100 ug after 48 hr by agar well diffusion method
Candida albicans [7] = assay: Antimicrobial activity against Candida albicans MTCC 227 at 100 ug after 48 hr by agar well diffusion method
Candida albicans [8] = assay: Antimicrobial activity against Candida albicans MTCC 227 at 150 ug after 48 hr by agar well diffusion method; details: for zone of inhibition at 150 µg/disc: MTCC 227, 48 h, read-out: IZ
Klebsiella pneumoniae = assay: Antimicrobial activity against Klebsiella pneumoniae MTCC 618 by broth dilution method
Pseudomonas aeruginosa = assay: Antimicrobial activity against Pseudomonas aeruginosa MTCC 741 by broth dilution method
Escherichia coli = assay: Antimicrobial activity against Escherichia coli MTCC 443 by broth dilution method
[9] = tested on: Staphylococcus epidermidis; assay: Antimicrobial activity against Staphylococcus epidermidis by broth dilution method
Staphylococcus aureus = assay: Antimicrobial activity against Staphylococcus aureus MTCC 96 by broth dilution method
Bacillus subtilis = assay: Antimicrobial activity against Bacillus subtilis MTCC 441 by broth dilution method

Q: For `c1ccc2oc(N3CCOCC3)nc2c1`, which Activity (Aspergillus niger [1]) is on record?
A: inactive

Q: What about the Activity (Rhizopus arrhizus [2]) of the same compound?
A: inactive

Q: What about the Activity (Aspergillus niger [3]) of the same compound?
A: inactive

Q: What about the Activity (Rhizopus arrhizus [4]) of the same compound?
A: inactive

Q: And the Activity (Saccharomyces cerevisiae [5])?
A: inactive

Q: And the Activity (Saccharomyces cerevisiae [6])?
A: inactive

Q: And the zone of inhibition at 100 µg/disc (Candida albicans [7]; MTCC 227, 48 h, read-out: IZ)?
A: 7 mm

Q: What about the zone of inhibition at 150 µg/disc (Candida albicans [8]) of the same compound?
A: 9 mm

Q: And the MIC (Klebsiella pneumoniae)?
A: 37.5 mg/L (≈ 184 µM)

Q: And the MIC (Pseudomonas aeruginosa)?
A: 150 mg/L (≈ 734 µM)

Q: What about the MIC (Escherichia coli) of the same compound?
A: 150 mg/L (≈ 734 µM)

Q: What about the MIC [9] of the same compound?
A: 150 mg/L (≈ 734 µM)

Q: And the MIC (Staphylococcus aureus)?
A: 75 mg/L (≈ 367 µM)

Q: And the MIC (Bacillus subtilis)?
A: 150 mg/L (≈ 734 µM)

Q: For `c1cnc(N2CCN(c3nc4ccccc4o3)CC2)nc1`, which Activity (Aspergillus niger [1]) is on record?
A: inactive

Q: What about the zone of inhibition at 150 µg/disc (Rhizopus arrhizus [2]) of the same compound?
A: 10 mm

Q: And the Activity (Aspergillus niger [3])?
A: inactive

Q: And the zone of inhibition at 100 µg/disc (Rhizopus arrhizus [4])?
A: 8 mm

Q: And the Activity (Saccharomyces cerevisiae [5])?
A: inactive

Q: What about the Activity (Saccharomyces cerevisiae [6]) of the same compound?
A: inactive

Q: And the Activity (Candida albicans [7])?
A: inactive

Q: What about the Activity (Candida albicans [8]) of the same compound?
A: inactive

Q: And the MIC (Klebsiella pneumoniae)?
A: 75 mg/L (≈ 267 µM)

Q: What about the MIC (Pseudomonas aeruginosa) of the same compound?
A: 75 mg/L (≈ 267 µM)

Q: And the MIC (Escherichia coli)?
A: 150 mg/L (≈ 533 µM)

Q: What about the MIC [9] of the same compound?
A: 150 mg/L (≈ 533 µM)

Q: And the MIC (Staphylococcus aureus)?
A: 150 mg/L (≈ 533 µM)

Q: What about the MIC (Bacillus subtilis) of the same compound?
A: 150 mg/L (≈ 533 µM)

Q: What does the source list for `O=c1oc2ccc(Cl)cc2n1CCCN1CCN(c2ccccc2)CC1`?
A: Activity (Aspergillus niger [1]): inactive; Activity (Rhizopus arrhizus [2]): inactive; Activity (Aspergillus niger [3]): inactive; Activity (Rhizopus arrhizus [4]): inactive; Activity (Saccharomyces cerevisiae [5]): inactive; Activity (Saccharomyces cerevisiae [6]): inactive; Activity (Candida albicans [7]): inactive; Activity (Candida albicans [8]): inactive; MIC (Klebsiella pneumoniae): 150 mg/L (≈ 403 µM); MIC (Pseudomonas aeruginosa): 150 mg/L (≈ 403 µM); MIC (Escherichia coli): 150 mg/L (≈ 403 µM); MIC [9]: 150 mg/L (≈ 403 µM); MIC (Staphylococcus aureus): 150 mg/L (≈ 403 µM); MIC (Bacillus subtilis): 150 mg/L (≈ 403 µM)

Q: What does the source list for `O=c1oc2ccc(Cl)cc2n1CCCN1CCN(Cc2ccccc2)CC1`?
A: zone of inhibition at 150 µg/disc (Aspergillus niger [1]; MTCC 282, 48 h, read-out: IZ): 9 mm; Activity (Rhizopus arrhizus [2]): inactive; zone of inhibition at 100 µg/disc (Aspergillus niger [3]; MTCC 282, 48 h, read-out: IZ): 7 mm; Activity (Rhizopus arrhizus [4]): inactive; Activity (Saccharomyces cerevisiae [5]): inactive; Activity (Saccharomyces cerevisiae [6]): inactive; Activity (Candida albicans [7]): inactive; zone of inhibition at 150 µg/disc (Candida albicans [8]): 9 mm; MIC (Klebsiella pneumoniae): 150 mg/L (≈ 389 µM); MIC (Pseudomonas aeruginosa): 75 mg/L (≈ 194 µM); MIC (Escherichia coli): 150 mg/L (≈ 389 µM); MIC [9]: 75 mg/L (≈ 194 µM); MIC (Staphylococcus aureus): 150 mg/L (≈ 389 µM); MIC (Bacillus subtilis): 150 mg/L (≈ 389 µM)

Q: For `O=c1oc2ccc(Cl)cc2n1CCCN1CCN(c2ccccn2)CC1`, which Activity (Aspergillus niger [1]) is on record?
A: inactive

Q: And the Activity (Rhizopus arrhizus [2])?
A: inactive

Q: What about the Activity (Aspergillus niger [3]) of the same compound?
A: inactive

Q: What about the Activity (Rhizopus arrhizus [4]) of the same compound?
A: inactive

Q: What about the Activity (Saccharomyces cerevisiae [5]) of the same compound?
A: inactive

Q: What about the Activity (Saccharomyces cerevisiae [6]) of the same compound?
A: inactive

Q: And the Activity (Candida albicans [7])?
A: inactive

Q: And the Activity (Candida albicans [8])?
A: inactive

Q: What about the MIC (Klebsiella pneumoniae) of the same compound?
A: 150 mg/L (≈ 402 µM)

Q: What about the MIC (Pseudomonas aeruginosa) of the same compound?
A: 75 mg/L (≈ 201 µM)

Q: And the MIC (Escherichia coli)?
A: 150 mg/L (≈ 402 µM)

Q: What about the MIC [9] of the same compound?
A: 150 mg/L (≈ 402 µM)

Q: What about the MIC (Staphylococcus aureus) of the same compound?
A: 150 mg/L (≈ 402 µM)

Q: What about the MIC (Bacillus subtilis) of the same compound?
A: 150 mg/L (≈ 402 µM)

Q: Which MIC (Klebsiella pneumoniae) does the source give for `CN[C@@H]1[C@H](O[C@H]2[C@H](O[C@H]3[C@H](O)[C@@H](O)[C@H](N=C(N)N)[C@@H](O)[C@@H]3N=C(N)N)O[C@@H](C)[C@]2(O)C=O)O[C@@H](CO)[C@H](O)[C@H]1O` [STREPTOMYCIN] here?
A: 3.12 mg/L (≈ 5.37 µM)

Q: What about the MIC (Pseudomonas aeruginosa) of the same compound?
A: 1.56 mg/L (≈ 2.69 µM)

Q: What about the MIC (Escherichia coli) of the same compound?
A: 6.25 mg/L (≈ 10.7 µM)

Q: What about the MIC [9] of the same compound?
A: 3.12 mg/L (≈ 5.37 µM)

Q: What about the MIC (Staphylococcus aureus) of the same compound?
A: 6.25 mg/L (≈ 10.7 µM)

Q: And the MIC (Bacillus subtilis)?
A: 6.25 mg/L (≈ 10.7 µM)

Q: `O=c1oc2ccc(Cl)cc2n1Cc1ccccc1` was tested. Which Activity (Aspergillus niger [1]) did it give?
A: inactive

Q: What about the Activity (Rhizopus arrhizus [2]) of the same compound?
A: inactive

Q: What about the Activity (Aspergillus niger [3]) of the same compound?
A: inactive

Q: And the Activity (Rhizopus arrhizus [4])?
A: inactive

Q: What about the Activity (Saccharomyces cerevisiae [5]) of the same compound?
A: inactive

Q: And the Activity (Saccharomyces cerevisiae [6])?
A: inactive

Q: And the Activity (Candida albicans [7])?
A: inactive

Q: What about the Activity (Candida albicans [8]) of the same compound?
A: inactive

Q: What about the MIC (Klebsiella pneumoniae) of the same compound?
A: 75 mg/L (≈ 289 µM)

Q: What about the MIC (Pseudomonas aeruginosa) of the same compound?
A: 150 mg/L (≈ 578 µM)

Q: What about the MIC (Escherichia coli) of the same compound?
A: 150 mg/L (≈ 578 µM)

Q: What about the MIC [9] of the same compound?
A: 75 mg/L (≈ 289 µM)

Q: What about the MIC (Staphylococcus aureus) of the same compound?
A: 75 mg/L (≈ 289 µM)

Q: And the MIC (Bacillus subtilis)?
A: 150 mg/L (≈ 578 µM)

Q: `c1ccc2oc(N3CCCNCC3)nc2c1` was tested. Which Activity (Aspergillus niger [1]) did it give?
A: inactive

Q: And the zone of inhibition at 150 µg/disc (Rhizopus arrhizus [2])?
A: 10 mm

Q: And the Activity (Aspergillus niger [3])?
A: inactive

Q: What about the zone of inhibition at 100 µg/disc (Rhizopus arrhizus [4]) of the same compound?
A: 8 mm

Q: And the Activity (Saccharomyces cerevisiae [5])?
A: inactive

Q: What about the Activity (Saccharomyces cerevisiae [6]) of the same compound?
A: inactive

Q: And the Activity (Candida albicans [7])?
A: inactive

Q: And the Activity (Candida albicans [8])?
A: inactive

Q: What about the MIC (Klebsiella pneumoniae) of the same compound?
A: 75 mg/L (≈ 345 µM)

Q: What about the MIC (Pseudomonas aeruginosa) of the same compound?
A: 75 mg/L (≈ 345 µM)

Q: And the MIC (Escherichia coli)?
A: 75 mg/L (≈ 345 µM)

Q: And the MIC [9]?
A: 150 mg/L (≈ 690 µM)

Q: What about the MIC (Staphylococcus aureus) of the same compound?
A: 150 mg/L (≈ 690 µM)

Q: And the MIC (Bacillus subtilis)?
A: 150 mg/L (≈ 690 µM)
